We go through one compound from patent US12691124B2, “Methods of controlling and improving brain health” (ICAHN SCHOOL OF MEDICINE AT MOUNT SINAI, priority 2019, dated 2026).

Each structure is given as a SMILES string.

The subject of one experiment is primary cortical neurons. Put plainly: Autophagy, protein content and cell size in neurons (LC3II/LC3I, BCA, Map2+ area). In kind it is cell-based, mouse. The protocol:
Immunoblotting. Mice were anesthetized with CO2 followed by decapitation, and the region of interest was rapidly dissected and frozen in liquid nitrogen and stored at −80° C. until further processing. Samples were sonicated at 4° C. in 1% SDS solution supplemented with protease, Trichostatin A (500 ng/ml) and PhosStop phosphatase inhibitor (Roche, Switzerland), and boiled for ten minutes. The protein concentration was determined using a BCA protein assay kit (ThermoFisherScientific, USA) according to the manufacturer's instructions. Protein samples were diluted in equal volume of 2×LDS sample buffer (Invitrogen) and supplemented with DTT to a final concentration of 200 mM (Sigma).
Because autophagy increases lipid species which are mostly non-polar, they are not detected in the polar metabolite data. However, if autophagy is, in fact, activated after BET inhibition, the neurons would be smaller and possibly contain less protein. Indeed, total protein content is decreased by 13% as measured by the BCA assay after one week of BET inhibition (FIG. 13C). […] Moreover, BET inhibition causes an almost three-fold increase in autophagy as measured by the ratio of LC3II to LC3I, a common autophagic marker (FIG. 13D).
Primary cortical neurons treated with IBET858 for 1 week have decreased glycolysis and amino acid metabolites (FIG. 21A). […] A summary of gene expression and metabolite data highlighting downregulation of solute carriers and metabolites that support anabolic and oxidative metabolic programs and an upregulation of neuroprotective metabolites and programs, such as autophagy (FIG. 21C). The glycolytic capacity of primary cortical neurons treated with acute (24 hour) or chronic (1 week) of IBET858 (FIGS. 21D-21H). IBET treated neurons was evaluated using the Seahorse assay. […] Further, the neurons display a decrease in glycolytic capacity as measured by the extracellular acidification rate (ECAR) (FIG. 21H). 1 week of IBET858 treatment increases autophagy as measured by an increase in the LC3 II/I ratio and a decrease in overall protein content by BCA assay (FIGS. 21I and 21J). CAG-RFP-EGFP-Map1lc3b mice expressing the LC3 protein together with RFP and a pH-dependent eGFP were used to evaluate the number of autophagic vesicles by immunofluorescence (FIGS. 21K and 21L). […] Frequency distribution of autophagic vesicles after 24 hours (left) or 1 week (right) treatment with IBET858 (FIG. 21L).

For a further experiment, the system named is C57bl/6 mice. Put plainly: Brain gene expression in IBET858 treated mice. Format: in vivo, mouse. The protocol: In vivo I-BET858 treatment. IBET858 was developed and validated by GlaxoSmithKline. I-BET858 solutions used for in vivo studies (3 mg/ml) were prepared in 10% Kleptose buffer with 5% DMSO (pH 6.5) and maintained at 4° C. I-BET858 was made fresh daily, buffers were made fresh each week. 30 mg/kg I-BET858 or vehicle (Kleptose buffer pH=6.5) was delivered by i.p injection. For acute treatment, 6-week-old mice received a single I-BET858 injection. […] Gene expression and behavioral changes were assessed in 6 weeks old mice at 4 h (acute, n=8-10 for behavior, n=2 for gene expression analysis) or 12 h (chronic, n=10 for behavior, n=2 for gene expression analysis) after the (last) I-BET858 injection, respectively.
RNA Isolation. For in vitro gene expression analysis, neuronal culture plates were washed once with PBS, and TRIzol was added directly to cultures to isolate RNA (n=3 per group). For in vivo gene expression analysis, mice were anesthetized with CO2 and decapitated. The striata from two control and acute or chronic I-BET treated mice were rapidly dissected on ice and frozen in liquid nitrogen. RNA extraction from frozen samples was performed using TRIzol/Chloroform according to manufacturer's instructions (Invitrogen Corporation, Carlsbad, CA). RNA was precipitated overnight at −80° C. in isopropanol with 0.15 M sodium acetate, washed twice with 70% ethanol, air-dried, and resuspended in RNase-free water. RNA samples were purified using Rneasy Micro columns (Qiagen) with on-column DNAse treatment as specified by manufacturer. RNA integrity was assayed using nanodrop and RNA Pico chip on Bioanalyzer 2100 (Agilent, Santa Clara, CA) for quality RIN>9.
IBET treatment induces neuroprotective gene expression changes in the hippocampus of mice in vivo (FIG. 23A).

Experiment [1] concerns primary microglia exposed to lipopolysaccharide (LPS). In words: LPS-induced gene expression in primary microglia pretreated with IBET858. In kind it is cell-based, mouse. The procedure: Primary Microglia Culture. Postnatal day 0 C57/Bl6 mice were decapitated in ice cold HBSS. The forebrain was rapidly dissected and treated as above in order to generate a single cell suspension. 60,000 cells per cm2 were seeded in vented, Poly-D-lysine coated flasks. Mixed glial cultures were maintained in DMEM containing 10% FBS and 1% penicillin/streptomycin for 3 weeks. After three weeks, microglia were isolated by shaking the mixed glial cultures for 4 hours at 360 rpm and re-plated at density on 100,0000 cells/cm2. Cultures were given 24 hours to settle before treatment. Cultures were pre-treated for 30 minutes with either DMSO (0.01%) or 1 uM IBET858. After 30 minutes, LPS (100 ng/ml) was added to the cultures. RNA was isolated with Trizol LS according to the manufacturer's recommendations after 1, 4 and 12 hours of LPS treatment.
To understand if BET proteins regulate the dynamic induction of pro-inflammatory gene networks, primary microglia were exposed to the bacterial cell wall component lipopolysaccharide, LPS. T, which is recognized by Tlr4, triggers a signal cascade that leads to an extensive increase in cytokine and chemokine production which causes significant damage to host tissues if left unrestrained. Nicodeme et al., “Suppression of Inflammation by a Synthetic Histone Mimic,” Nature 468:1119-1123 (2010), which is hereby incorporated by reference in its entirety. As before, microglial identity genes Tyrobp, Hexb and Trem2 were unaffected by IBET858 (FIG. 4B). As expected, LPS causes a time-dependent increase in pro-inflammatory gene expression in microglia (FIGS. 4C-4E). […] BET inhibition specifically decreases the expression of inflammatory genes (Il6, Cd33, and Nlrp3), interferon response pathway (Ifnb, Irf2/9, Mx1) and cell death mediators (Bid, Casp1/4/7/12, Traf1). […] Nicodeme et al., “Suppression of Inflammation by a Synthetic Histone Mimic,” Nature 468:1119-1123 (2010), which is hereby incorporated by reference in its entirety.

The mark [2] stands for this setting: IBET858 treated mice compared to vehicle.

In the case of `CC(=O)N1c2ccc(-c3ccc(CN4CCCCC4)cc3)cc2[C@H](Nc2ccccc2)CC1C` (stereo in doubt) [IBET858], in the experiment on primary cortical neurons, the “decrease in somatic area (Map2+ area)” value amounted to 25%. In addition, the “autophagic vesicles (CAG-RFP-EGFP-Map1lc3b neurons)” value in the experiment on primary cortical neurons (1 w) was “an increase in autophagic vesicles”. For the same compound, in the experiment with primary cortical neurons (1 week), the “increase in autophagy, ratio of LC3II to LC3I” value is “three”. In addition, in the experiment on primary cortical neurons (one week of BET inhibition), the “decrease in total protein content, BCA assay” value is recorded as 13%. Also, the “Casp3 gene expression levels” value in the experiment on C57bl/6 mice (5 week IBET858 treatment in vivo) is on record as “unaffected”. Besides, in the experiment on C57bl/6 mice (setting [2]), the “autophagy and proteostasis genes” value was “increased”; the “genes involved in metabolic pathways” value is listed as “downregulated”. In addition, in experiment [1] (1 μM), the “chemotaxis, cell proliferation and NFkB pathway genes after LPS” value is listed as “insensitive”; the “microglial identity genes Tyrobp, Hexb and Trem2 after LPS” value is “unaffected”. Also, in experiment [1] (1 μM pretreatment 30 min, LPS 1 h), the LPS gene induction result is listed as “little effect”. Further, the “LPS induced genes inhibited / LPS induced genes” value in experiment [1] (LPS 4 hours) is given as 514/960. In experiment [1] (LPS 12 hours), the “LPS induced genes inhibited / LPS induced genes” value is on record as 484/747.
